The NIST ThermoML archive (doi:10.1016/j.jct.2012.06.031)

Assay: xn = mol fraction of the nth substance listed
Conditions: 101 kPa, Liquid; for viscosity: Concentric cylinders viscometry; for mass density: Vibrating tube method

c1ccncc1 [pyridine] + OCC(O)CO
Conditions | mass density [kg/m3] | viscosity [mPa·s]
288.15 K, x1 = 0.1 | 1237.23 | 1518
288.15 K, x1 = 0.2001 | 1209.17 | 853.01
288.15 K, x1 = 0.3001 | 1182.56 | 438.65
288.15 K, x1 = 0.4 | 1156.91 | 202.46
288.15 K, x1 = 0.4998 | 1130.25 | 86.64
288.15 K, x1 = 0.6001 | 1103.35 | 29.67
288.15 K, x1 = 0.6999 | 1075.51 | 7.871
288.15 K, x1 = 0.8001 | 1047.04 | 4.241
288.15 K, x1 = 0.8999 | 1018 | 1.944
288.15 K, x1 = 1 | 988.061 | 1.03
293.15 K, x1 = 0.1 | 1233.99 | 946.3
293.15 K, x1 = 0.2001 | 1205.75 | 539.76
293.15 K, x1 = 0.3001 | 1178.91 | 283.85
293.15 K, x1 = 0.4 | 1153.16 | 135.63
293.15 K, x1 = 0.4998 | 1126.26 | 60.5
293.15 K, x1 = 0.6001 | 1099.12 | 22.37
293.15 K, x1 = 0.6999 | 1071.23 | 6.966
293.15 K, x1 = 0.8001 | 1042.41 | 3.639
293.15 K, x1 = 0.8999 | 1013.18 | 1.748
293.15 K, x1 = 1 | 983.038 | 0.9588
298.15 K, x1 = 0.1 | 1230.73 | 608.94
298.15 K, x1 = 0.2001 | 1202.25 | 352.75
298.15 K, x1 = 0.3001 | 1175.23 | 189.75
298.15 K, x1 = 0.4 | 1149.36 | 93.82
298.15 K, x1 = 0.4998 | 1122.23 | 43.51
298.15 K, x1 = 0.6001 | 1094.86 | 17.25
298.15 K, x1 = 0.6999 | 1066.63 | 6.111
298.15 K, x1 = 0.8001 | 1037.6 | 3.155
298.15 K, x1 = 0.8999 | 1008.34 | –
298.15 K, x1 = 1 | 978.006 | 0.8943
303.15 K, x1 = 0.1 | 1227.44 | 403.56
303.15 K, x1 = 0.2001 | 1198.74 | 237.3
303.15 K, x1 = 0.3001 | 1171.52 | 130.53
303.15 K, x1 = 0.4 | 1145.49 | 66.75
303.15 K, x1 = 0.4998 | 1118.17 | 32.21
303.15 K, x1 = 0.6001 | 1090.58 | 13.57
303.15 K, x1 = 0.6999 | 1062.16 | 5.257
303.15 K, x1 = 0.8001 | 1033.11 | 2.765
303.15 K, x1 = 0.8999 | 1003.49 | 1.439
303.15 K, x1 = 1 | 972.967 | 0.8355
308.15 K, x1 = 0.1 | 1224.12 | 275.49
308.15 K, x1 = 0.2001 | 1195.32 | 164.23
308.15 K, x1 = 0.3001 | 1167.95 | 92.29
308.15 K, x1 = 0.4 | 1141.6 | 48.72
308.15 K, x1 = 0.4998 | 1114.07 | 24.45
308.15 K, x1 = 0.6001 | 1086.27 | 10.87
308.15 K, x1 = 0.6999 | 1057.66 | 4.532
308.15 K, x1 = 0.8001 | 1028.43 | 2.441
308.15 K, x1 = 0.8999 | 998.628 | 1.316
308.15 K, x1 = 1 | 967.913 | 0.7837
313.15 K, x1 = 0.1 | 1220.77 | 192.54
313.15 K, x1 = 0.2001 | 1191.92 | 116.47
313.15 K, x1 = 0.3001 | 1164.44 | 66.86
313.15 K, x1 = 0.4 | 1137.67 | 36.35
313.15 K, x1 = 0.4998 | 1109.95 | 18.9
313.15 K, x1 = 0.6001 | 1081.93 | 8.841
313.15 K, x1 = 0.6999 | 1053.14 | 3.95
313.15 K, x1 = 0.8001 | 1023.73 | 2.172
313.15 K, x1 = 0.8999 | 993.746 | 1.209
313.15 K, x1 = 1 | 962.849 | 0.7354
318.15 K, x1 = 0.1 | 1217.48 | 137.7
318.15 K, x1 = 0.2001 | 1188.63 | 84.41
318.15 K, x1 = 0.3001 | 1160.93 | 49.31
318.15 K, x1 = 0.4 | 1133.7 | 27.66
318.15 K, x1 = 0.4998 | 1105.79 | 14.88
318.15 K, x1 = 0.6001 | 1077.57 | 7.298
318.15 K, x1 = 0.6999 | 1048.59 | 3.463
318.15 K, x1 = 0.8001 | 1019 | 1.944
318.15 K, x1 = 0.8999 | 988.846 | 1.114
318.15 K, x1 = 1 | 957.769 | 0.6912
323.15 K, x1 = 0.1 | 1214.26 | 101.38
323.15 K, x1 = 0.2001 | 1185.34 | 63.12
323.15 K, x1 = 0.3001 | 1157.38 | 38.06
323.15 K, x1 = 0.4 | 1129.71 | 21.58
323.15 K, x1 = 0.4998 | 1101.59 | 12.04
323.15 K, x1 = 0.6001 | 1073.01 | 6.153
323.15 K, x1 = 0.6999 | 1044.02 | 3.06
323.15 K, x1 = 0.8001 | 1014.26 | 1.769
323.15 K, x1 = 0.8999 | 983.927 | 1.038
323.15 K, x1 = 1 | 952.673 | 0.6507
